Values joined by “and” are separate entries in the source; they are usually repeats but may differ in a detail not shown here. Equal entries are not always repeated.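 These data come from cells grown in 96-well plates and exposed to compound for 48 hours at five concentrations. GI50 = concentration required for 50% inhibition of growth. At the TGI there is no net growth.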

The subject of the assay is MDA-MB-468 breast. Briefly: DTP human tumour cell line panel, 48 h.
Take `CC/C=C\C/C=C\C[C@H]1C/C=C2/C(=O)C=C[C@H]2C/C=C\CCC(=O)O1`: the GI50 (in general, the concentration giving 50% growth inhibition) is 1.86 µM and the concentration for total growth inhibition (TGI) (as a rule, the concentration giving total growth inhibition) was found to be 5 µM.
The matching figures for `COc1ccc(Nc2ncccc2C(=O)NCc2cn(Cc3cccc(Oc4ccccc4)c3)nn2)cc1`: 2.32 µM and 6.95 µM.
The matching figures for `CC(C)Oc1ccc(C(=O)N[C@H](CNC(=O)CN(C)C)Cc2ccc(-c3cn4cccc([C@H](C)O)c4n3)cc2)cc1Cl`: 0.0389 µM and 17.5 µM.
Consider `Nc1nc2c(c3cnccc13)C(c1cccc(Cl)c1)Cc1cnccc1-2` (stereo not given), for which the GI50 is 0.21 µM and the concentration for total growth inhibition (TGI) was found to be 0.576 µM.
The like results for `CCCN1CCN(c2ccc3nc(-c4ccc5nc(-c6ccc(OCC)c(OCC)c6)[nH]c5c4)[nH]c3c2)CC1` were, in that order, 0.369 µM and 1.3 µM.
In the case of `NC[C@@](O)(c1ccc(Cl)cc1)c1ccc(-c2cn[nH]c2)cc1`, the GI50 is 1.08 µM and 0.54 µM; the TGI was 3.79 µM and 2.01 µM.
Turning to `O=C(/C=C/c1cccnc1)c1ccccc1O`, the GI50 is 15.1 µM and the concentration for total growth inhibition (TGI) worked out at 37.3 µM.
The like results for `CCc1ccc(Nc2cc(C)nc3nc(C)nn23)cc1` were, in that order, 28.6 µM and over 100 µM.
With `CC1Cc2cc(O)ccc2C2[C@@H]1C1CC[C@H](O)[C@@]1(C)C[C@@H]2O[N+](=O)[O-]` (stereo not given in full), the GI50 was 27.6 µM and the total growth inhibition concentration (TGI) is over 100 µM.
For `CC(C)[C@@H]1CC[C@@H]2[C@@H]1[C@H](OC(=O)/C=C/c1ccccc1)[C@]1(C(C)C)C[C@@H](OC(=O)CO)[C@@]2(C)O1`, the GI50 was 6.07 µM and the concentration for total growth inhibition (TGI) is 12.6 µM.
Take `Cc1ccccc1/C=C1\CN(C(=O)OC(C)(C)C)C/C(=C\c2ccccc2C)C1=O`: the GI50 is 1.83 µM and the concentration for total growth inhibition (TGI) was 4.45 µM.
On to `CN1CCCN(C(c2ccccc2)c2ccc(Br)cc2)CC1` (stereo not given), for which the GI50 is 1.93 µM and the TGI came to 6.53 µM.
Regarding `CCOC(=O)Nc1cccc(-n2cnc3cc(-c4ccc(O)cc4)ccc32)c1`, the GI50 was 0.243 µM and the concentration for total growth inhibition (TGI) was found to be 10.6 µM.
Regarding `C/C(=N\NC(=O)c1ccncc1)c1ccc(O)cc1O`, the GI50 was 4.16 µM and the TGI came out at 50.8 µM.
As for `COc1ccc(Cn2c(Br)c3c(c2-c2cc(OC)c(OC)c(OC)c2)CCc2sc(NC(C)=O)nc2-3)cc1`, the GI50 was 4.86 µM and the total growth inhibition concentration (TGI) was 46.3 µM.
Turning to `N=c1ccn2c(n1)O[C@@H]1[C@@H](O)[C@H](CO)O[C@@H]12`, the GI50 was 48.4 µM and the TGI is over 100 µM.
The like results for `C[C@@]1(N2C(=O)OC[C@@H]2c2ccccc2)C(=O)N([C@H](CC(=O)N2CCC(N3CCCCC3)CC2)C(=O)NCc2cccc(C(F)(F)F)c2)[C@@H]1/C=C/c1ccccc1` were, in that order, 1.9 µM and 3.77 µM.
The like results for `Nc1c(C(=O)Nc2ccccc2)sc2nc3c(cc12)CCCC3` were, in that order, 0.317 µM and 47.9 µM.
The like results for `C=C1N(C)c2ccc(Cl)cc2C1(C)C` were, in that order, 2.64 µM and 15.6 µM.
Regarding `CSc1nc2c(c(=O)[nH]1)C(c1ccc(Cl)cc1)C1=C(N2)/C(=C/c2ccc(Cl)cc2)CNC1` (stereo not given), the GI50 is 1.8 µM and the TGI stood at 4.02 µM.
The matching figures for `COc1ccc(/C=C/C(=O)c2ccc(Nc3ccnc4cc(Cl)ccc34)cc2)cc1`: over 100 µM and over 100 µM.
The matching figures for `COc1cc(OC)cc(-c2cncn2-c2ccc(-c3nc4cc(OC)c(OC)c(OC)c4s3)cc2)c1`: 10.7 µM and over 100 µM.
The like results for `CCN1CCN(C(=O)[C@]23CCC(C)(C)C[C@@H]2C2=CC[C@@H]4[C@@]5(C)C/C(=C/c6cccnc6)C(=O)C(C)(C)[C@@H]5CC[C@@]4(C)[C@]2(C)CC3)CC1` were, in that order, 1.28 µM and 3.94 µM.
On to `COc1cc2c3c(c4c5ccccc5[nH]c4c2c(OC)c1OC)C(=O)N(CCN1CCCCC1)C3=O`, for which the GI50 is 1.6 µM and the total growth inhibition concentration (TGI) is 19.2 µM.
Turning to `O=C(CN1CCN(c2ccc(Cl)cc2)CC1)N1CCN(c2nnc(-c3ccccc3)c(-c3ccccc3)n2)CC1`, the GI50 was 1.83 µM and the TGI was 53.3 µM.

The values are drawn from PubChem BioAssay (NCI).
